Laboratory results published in patent US9855203B2, “Preserving personal care compositions” (The Procter & Gamble Company, priority 2013, dated 2018).

Assay: Log water solubility of preservatives
Details: logarithm base 10 of molar solubility at 25° C.; from experimental solubility or Chemsilico CS log WSo-3.0

SMILES	Log (water Solubility in mol/L)
CCOC(=O)c1ccc(O)cc1 [ethyl paraben]	−1.91 mol/L
OCc1ccccc1 [benzyl Alcohol]	−0.47 mol/L
C=CCCCCCCCCC(=O)O [Undecylenic Acid]	−3.15 mol/L
O=C(O)c1ccccc1O [Salicylic acid]	−1.41 mol/L
CCCCCCC(O)CO (stereo not shown) [caprylyl glycol]	−3.08 mol/L

Continued, values first:

Log (water Solubility in mol/L)	SMILES
−0.33 mol/L	C/C=C/C=C/C(=O)O [sorbic acid]
−0.83 mol/L	OCCc1ccccc1 [phenethyl alcohol]
